How the values were obtained:
wheat powdery mildew [1] = assay: Fungicidal activity tests against wheat powdery mildew (wheat seedlings sprayed at 200 mg/L, greenhouse); format: in vivo; details: 200 mg/L spray, inoculated 24 hours later, visual assessment 7 days after treatment
Method: Compounds for test were weighed quantitatively and dissolved into acetone of suitable volume (acetone's volume is 10% of the whole solution's volume), then diluted by water containing 0.1% (volume percent, the same below) Tween 80, into 200 mg/L. By turntable crop sprayer, wheat seedlings with 1 leaf and 1 core were treated under the spray pressure of 1.5 kg/cm^2 and the spray volume of about 1000 L/hm^2, then naturally dry, 24 hours later wheat powdery mildew spore was inoculated, and then continue being incubated in greenhouse. Assessment of efficacy was carried out by visual observation 7 days later after treatment.

Cucumber scab = assay: In vitro fungicidal activity test, PDA mycelium growth inhibition method; format: cell-based
Method: (§1) PDA mycelium growth inhibition method was used for this test. Compound 13 (content 95%) was weighed quantitatively and dissolved in acetone of suitable volume (acetone's volume is 10% of the whole solution's volume), then diluted with water containing 0.1% Tween 80 into the solution of the medicament at the needed concentration, and then diluted with the same water into a series of concentration for tests. The medicament for test diluted by water was added quantitatively into the heating full-nutrition culture medium, to form culture medium including the medicament at a series of concentration, and then poured into 9-cm culture dish, after cooling, inoculated with the pathogen cake (diameter 0.5 cm) for test which was incubated in vitro, each treatment was repeated tree times. After treatment, placed in growth chamber in 27° C., 3-4 days later, observe the growth of the blank contrast fungi colony, the diameter of fungi colony was investigated and measured, and corrected inhibition ratio was calculated.

Wheat root rot = assay: as above; format: cell-based
Method: as §1

[2] = tested on: Wheat Fusarium Head Blight; assay: microbe, parasite or virus in culture; format: cell-based; details: read-out: Effect of mycelium growth inhibition (%)
Cucumber wilt blight = assay: In vitro fungicidal activity test, PDA mycelium growth inhibition method; format: cell-based; details: 27° C., 3-4 days, read-out: Effect of mycelium growth inhibition (%)
Cucumber anthracnose = assay: as above; format: cell-based
wheat powdery mildew [3] = assay: Curative activity test against wheat powdery mildew; format: in vivo; details: for control %: curative, sprayed 4 days after inoculation
[4] = tested on: corn curvalaria leaf spot; assay: In vitro fungicidal activity test, PDA mycelium growth inhibition method; format: cell-based
Rice blast = assay: microbe, parasite or virus in culture; format: cell-based
Rice false smut = assay: In vitro fungicidal activity test, PDA mycelium growth inhibition method; format: cell-based
Rice sheath blight = assay: as above; format: cell-based
wheat powdery mildew [5] = assay: Protective activity test against wheat powdery mildew; format: in vivo; details: for control %: protective, assessed 7 days later
[6] = 0.1 mg/L, 27° C., 3-4 days, read-out: Effect of mycelium growth inhibition (%)
[7] = 1 mg/L, 27° C., 3-4 days, read-out: Effect of mycelium growth inhibition (%)
[8] = 10 mg/L, 27° C., 3-4 days, read-out: Effect of mycelium growth inhibition (%)
[9] = Pyricularia oryzae, read-out: Effect of mycelium growth inhibition (%)

Q: With COC(=O)N(OC)c1ccccc1COc1nc(Cl)c(Cl)cc1Cl [Compound 13, Methyl N-methoxy-N-(2-((3,5,6-trichloropyridin-2-yl)oxymethyl)phenyl)carbamate] as the compound, how does the “control %” value (wheat powdery mildew [1]) read?
A: 100%

Q: What about the inhibition at 0.1 µg/mL (Cucumber scab; [6]) of the same compound?
A: 28.7%

Q: What about the inhibition at 1 µg/mL (Cucumber scab; [7]) of the same compound?
A: 50%

Q: And the inhibition at 10 µg/mL (Cucumber scab; [8])?
A: 65%

Q: And the “fungicidal activity (in words)” value (Cucumber scab; in vitro)?
A: outstanding

Q: And the inhibition at 0.1 µg/mL (Wheat root rot; Wheat root rot, 0.1 mg/L, 27° C., 3-4 days, read-out: Effect of mycelium growth inhibition (%))?
A: 32.6%

Q: What about the inhibition at 1 µg/mL (Wheat root rot; Wheat root rot, 1 mg/L, 27° C., 3-4 days, read-out: Effect of mycelium growth inhibition (%)) of the same compound?
A: 46.3%

Q: What about the inhibition at 10 µg/mL (Wheat root rot; Wheat root rot, 10 mg/L, 27° C., 3-4 days, read-out: Effect of mycelium growth inhibition (%)) of the same compound?
A: 61.1%

Q: What about the “fungicidal activity (in words)” value (Wheat root rot; wheat root rot, in vitro) of the same compound?
A: outstanding

Q: And the inhibition at 0.1 µg/mL [2]?
A: 20.3%

Q: What about the inhibition at 1 µg/mL [2] of the same compound?
A: 21.1%

Q: And the inhibition at 10 µg/mL [2]?
A: 42.9%

Q: What about the melting point of the same compound?
A: 94 to 95 °C

Q: What about the inhibition at 0.1 µg/mL (Cucumber wilt blight; 0.1 mg/L) of the same compound?
A: 27.1%

Q: What about the inhibition at 1 µg/mL (Cucumber wilt blight; 1 mg/L) of the same compound?
A: 33.6%

Q: And the inhibition at 10 µg/mL (Cucumber wilt blight; 10 mg/L)?
A: 51.4%

Q: And the inhibition at 0.1 µg/mL (Cucumber anthracnose; Cucumber anthracnose, 0.1 mg/L, 27° C., 3-4 days, read-out: Effect of mycelium growth inhibition (%))?
A: 42.8%

Q: And the inhibition at 1 µg/mL (Cucumber anthracnose; Cucumber anthracnose, 1 mg/L, 27° C., 3-4 days, read-out: Effect of mycelium growth inhibition (%))?
A: 62.8%

Q: And the inhibition at 10 µg/mL (Cucumber anthracnose; Cucumber anthracnose, 10 mg/L, 27° C., 3-4 days, read-out: Effect of mycelium growth inhibition (%))?
A: 72.4%

Q: What about the “fungicidal activity (in words)” value (Cucumber anthracnose; cucumber anthracnose, in vitro) of the same compound?
A: outstanding

Q: What about the control % (wheat powdery mildew [3]; concentration 0.78 mg/L) of the same compound?
A: 10%

Q: And the control % (wheat powdery mildew [3]; concentration 1.56 mg/L)?
A: 35%

Q: What about the control % (wheat powdery mildew [3]; concentration 3.125 mg/L) of the same compound?
A: 70%

Q: What about the control % (wheat powdery mildew [3]; concentration 6.25 mg/L) of the same compound?
A: 100%

Q: What about the control % (wheat powdery mildew [3]; concentration 12.5 mg/L) of the same compound?
A: 100%

Q: And the “curative activity compared with the standard chemical (in words)” value (wheat powdery mildew [3]; versus kresoxim-methyl)?
A: better than the one of standard chemical

Q: What about the inhibition at 0.1 µg/mL [4, 6] of the same compound?
A: 55.4%

Q: What about the inhibition at 1 µg/mL [4, 7] of the same compound?
A: 56.2%

Q: And the inhibition at 10 µg/mL [4, 8]?
A: 70.2%

Q: What about the “fungicidal activity (in words)” value ([4]; in vitro) of the same compound?
A: outstanding

Q: What about the inhibition at 0.1 µg/mL (Rice blast; [9]) of the same compound?
A: 36.6%

Q: And the inhibition at 1 µg/mL (Rice blast; [9])?
A: 62.6%

Q: And the inhibition at 10 µg/mL (Rice blast; [9])?
A: 77.2%

Q: What about the “fungicidal activity (in words)” value (Rice blast; rice blast, in vitro) of the same compound?
A: outstanding

Q: What about the inhibition at 0.1 µg/mL (Rice false smut; Rice false smut, 0.1 mg/L, 27° C., 3-4 days, read-out: Effect of mycelium growth inhibition (%)) of the same compound?
A: 19.5%

Q: And the inhibition at 1 µg/mL (Rice false smut; Rice false smut, 1 mg/L, 27° C., 3-4 days, read-out: Effect of mycelium growth inhibition (%))?
A: 42.8%

Q: What about the inhibition at 10 µg/mL (Rice false smut; Rice false smut, 10 mg/L, 27° C., 3-4 days, read-out: Effect of mycelium growth inhibition (%)) of the same compound?
A: 79.2%

Q: What about the “fungicidal activity (in words)” value (Rice false smut; rice false smut, in vitro) of the same compound?
A: outstanding

Q: And the inhibition at 0.1 µg/mL (Rice sheath blight; Rice sheath blight, 0.1 mg/L, 27° C., 3-4 days, read-out: Effect of mycelium growth inhibition (%))?
A: 42.7%

Q: And the inhibition at 1 µg/mL (Rice sheath blight; Rice sheath blight, 1 mg/L, 27° C., 3-4 days, read-out: Effect of mycelium growth inhibition (%))?
A: 59.2%

Q: And the inhibition at 10 µg/mL (Rice sheath blight; Rice sheath blight, 10 mg/L, 27° C., 3-4 days, read-out: Effect of mycelium growth inhibition (%))?
A: 78.6%

Q: And the “fungicidal activity (in words)” value (Rice sheath blight; rice sheath blight, in vitro)?
A: outstanding

Q: What about the control % (wheat powdery mildew [5]; concentration 0.78 mg/L) of the same compound?
A: 100%

Q: What about the control % (wheat powdery mildew [5]; concentration 1.56 mg/L) of the same compound?
A: 100%

Q: What about the control % (wheat powdery mildew [5]; concentration 3.125 mg/L) of the same compound?
A: 100%

Q: And the control % (wheat powdery mildew [5]; concentration 6.25 mg/L)?
A: 100%

Q: What about the control % (wheat powdery mildew [5]; concentration 12.5 mg/L) of the same compound?
A: 100%

Q: What about the “preventative activity compared with the standard chemical (in words)” value (wheat powdery mildew [5]; versus Kresoxim-methyl, 0.78-12.5 mg/L) of the same compound?
A: obviously better than the one of the standard chemical

Q: Which results are given for COC(=O)N(OC)c1ccccc1CNc1c(Cl)c(F)nc(F)c1Cl [Compound 49, Methyl N-(2-((3,5-dichloro-2,6-difluoropyridin-4-yl)aminomethyl)phenyl)-N-methoxycarbamate]?
A: control % (wheat powdery mildew [1]): 85%; melting point: 82 to 83 °C

Q: For CO/N=C(/C(=O)OC)c1ccccc1COc1ccccc1C [Kresoxim-methyl, reference compound], which control % (wheat powdery mildew [3]; concentration 0.78 mg/L) is on record?
A: 0%

Q: And the control % (wheat powdery mildew [3]; concentration 1.56 mg/L)?
A: 10%

Q: What about the control % (wheat powdery mildew [3]; concentration 3.125 mg/L) of the same compound?
A: 15%

Q: What about the control % (wheat powdery mildew [3]; concentration 6.25 mg/L) of the same compound?
A: 75%

Q: And the control % (wheat powdery mildew [3]; concentration 12.5 mg/L)?
A: 100%

Q: What about the control % (wheat powdery mildew [5]; concentration 0.78 mg/L) of the same compound?
A: 15%

Q: And the control % (wheat powdery mildew [5]; concentration 1.56 mg/L)?
A: 40%

Q: What about the control % (wheat powdery mildew [5]; concentration 3.125 mg/L) of the same compound?
A: 70%

Q: And the control % (wheat powdery mildew [5]; concentration 6.25 mg/L)?
A: 98%

Q: And the control % (wheat powdery mildew [5]; concentration 12.5 mg/L)?
A: 100%

— US7666884B2, “N-(2-substituted phenyl)-N-methoxycarbamates and their preparation and use thereof” (priority 2005, dated 2010)
